Measured values from patent US12616760B2, “Synthetic cyclic peptide mimetics” (priority 2020, dated 2026).
Like-named read-outs stand apart in the source and are kept apart here. Square brackets hold non-standard residues; d marks the D form. Peptide text beside a SMILES is read from it. Nle = CCCC[C@H](N)C(=O)O; azaGly = NNC(=O)O

What was measured:
[1] = biological target: T1, Aβ40 (Homo sapiens, UniProt P05067); assay: Thioflavin T (ThT) fluorescence assay of Aβ40 aggregation; type: biochemical; conditions: for Inhibition of amyloidogenic activity(%) / Inhibition of amyloidogenic activity: ThT; for Inhibition of amyloidogenic activity: Table 4
T1 construct: The extent of Aβ40 aggregation in the presence of increasing concentrations of azacyclopeptides
T1 sequence (P05067 672-711 limits assumed): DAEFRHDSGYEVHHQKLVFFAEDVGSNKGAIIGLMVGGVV
Experimental: Amyloid generation can be identified and quantified using the thioflavin T (ThT) fluorescence dye assay. […] Agents that bind and inhibit aggregation of Aβ diminish ThT fluorescence relative to untreated Aβ. The extent of Aβ40 aggregation in the presence of increasing concentrations of azacyclopeptides and azasulfurylcyclopeptide 55 was evaluated by the ThT assay. Fluorescence of Aβ40 that was aged for 48 h was used as control, defined as 0% anti-amyloidogenic activity, and compared with fluorescence in the presence of cyclic peptide mimics at increasing concentrations to measure anti-amyloidogenic activity.

[2] = test system: rat pheochromocytoma PC12 cells; type: cell-based; design: Cells survival (%): concentration or dose not given beside the values; conditions: for Cells survival (%): Table 5, PC12, MTT
Experimental: Considering that self-assembly and aggregation of Aβ are key components of AD pathogenesis, the ability of azaGly-cyclopeptides 2-7 to reduce Aβ-induced toxicity was next tested in rat pheochromocytoma PC12 cells. Cells were incubated for 24 h with Aβ40 (10 μM) that had been aged for 48 h in the presence and absence of increasing concentrations of the azacyclopeptides. Cell viability was assessed using the 3-(4,5-dimethylthiazol-2-yl)-2,5-diphenyltetrazolium bromide (MTT) survival assay (Table 2). In this assay, viable cells reduce permeable MTT by active metabolism to produce a purple-colored formazan product with absorbance maximum near 570 nm. Dead cells lose the ability to convert MTT into formazan. The quantity of formazan is therefore directly proportional to the number of viable cells and measurable over time by recording changes in absorbance using a spectrophotometer. Neurons are susceptible to the lethal effects of misfolded proteins which are likely to aggregate at increased concentration. The pheochromocytoma (PC12) cell line is commonly used in in vitro studies to examine neuronal variation and neurotoxicity as a model of neurodegenerative disease.

[3] = Aβ:peptide 1:1, 10 μM soluble Aβ40
[4] = Aβ:peptide 1:5, 10 μM soluble Aβ40
[5] = Aβ:peptide 1:10, 10 μM soluble Aβ40
[6] = Aβ:peptide 1:0.1, 10 μM soluble Aβ40

Molecule	Inhibition of amyloidogenic activity(%) [1, 3]	Inhibition of amyloidogenic activity(%) [1, 4]	Inhibition of amyloidogenic activity(%) [1, 5]	Inhibition of amyloidogenic activity(%) ([1]; Table 5, Aβ:peptide 1:1)	Inhibition of amyloidogenic activity(%) ([1]; Table 5, Aβ:peptide 1:5)	Inhibition of amyloidogenic activity(%) ([1]; Table 5, Aβ:peptide 1:10)	effect on lag phase and ThT fluorescence ([1]; incubation with Aβ)	Cells survival (%) ([2]; Aβ:peptide 1:1)	Cells survival (%) ([2]; Aβ:peptide 1:5)	further results
CCCC[C@@H]1NC(=O)[C@@H](CC(C)C)NC(=O)[C@H](CCCCN)NC(=O)[C@@H](CO)NC(=O)[C@H](Cc2c[nH]cn2)NC(=O)[C@@H](Cc2c[nH]c3ccccc23)NC1=O [Compound 1, Cyclo-L-lysine-D-leucine-L-norleucine-D-tryptophan-L-histidine-D-serine, reference compound] (cyclo(K[dL][Nle][dW]H[dS]))	44.6%	84.7%	92.8%	44.6%	84.7%	92.8%				Inhibition of amyloidogenic activity ([1]; Aβ:peptide 1:1): 44.6%; Inhibition of amyloidogenic activity ([1]; Aβ:peptide 1:5): 84.7%; Inhibition of amyloidogenic activity ([1]; Aβ:peptide 1:10): 92.8%
CCCC[C@@H]1NC(=O)[C@@H](CC(C)C)NC(=O)NNC(=O)[C@@H](CO)NC(=O)[C@H](Cc2c[nH]cn2)NC(=O)[C@@H](Cc2c[nH]c3ccccc23)NC1=O [Compound 2, c(D-Leu-L-Nle-D-Trp-L-His-D-Ser-Gly*)] (cyclo([azaGly][dL][Nle][dW]H[dS]))	76.7%									cell survival ([2]; 24 h): 87%; Inhibition of amyloidogenic activity(%) [1, 6]: 63.9%; effect on lag phase and ThT fluorescence ([1]; above stoichiometric concentrations): promoted significantly fibrilization of Aβ shortening the lag-phase and increasing ThT fluorescence; effect on lag phase and ThT fluorescence ([1]; at and below stoichiometric concentrations): prolonged dramatically the lag-phase and reduced ThT fluorescence
CCCC[C@@H]1NC(=O)[C@@H](CC(C)C)NC(=O)[C@H](CCCCN)NC(=O)[C@@H](CO)NC(=O)NNC(=O)[C@@H](Cc2c[nH]c3ccccc23)NC1=O [Compound 4, c(D-Leu-L-Nle-D-Trp-Gly*-D-Ser-L-Lys)] (cyclo(K[dL][Nle][dW][azaGly][dS]))	50.2%	75%	68.8%							
CCCC[C@@H]1NC(=O)[C@@H](CC(C)C)NC(=O)[C@H](CCCCN)NC(=O)[C@@H](CO)NC(=O)[C@H](Cc2c[nH]cn2)NC(=O)NNC1=O [Compound 5, c(D-Leu-L-Nle-Gly*-L-His-D-Ser-L-Lys)] (cyclo(K[dL][Nle][azaGly]H[dS]))	89.8%	91.1%	90.8%				dramatically prolonged the lag phase and reduced the ThT fluorescence			Inhibition of amyloidogenic activity(%) [1, 6]: 55.3%
CC(C)C[C@H]1NC(=O)[C@H](CCCCN)NC(=O)[C@@H](CO)NC(=O)[C@H](Cc2c[nH]cn2)NC(=O)[C@@H](Cc2c[nH]c3ccccc23)NC(=O)NNC1=O [Compound 6, c(D-Leu-Gly*-D-Trp-L-His-D-Ser-L-Lys)] (cyclo(K[dL][azaGly][dW]H[dS]))		80.1%	81.8%				dramatically prolonged the lag phase and reduced the ThT fluorescence			
CCCC[C@@H]1NC(=O)NNC(=O)[C@H](CCCCN)NC(=O)[C@@H](CO)NC(=O)[C@H](Cc2c[nH]cn2)NC(=O)[C@@H](Cc2c[nH]c3ccccc23)NC1=O [Compound 7, c(Gly*-L-Nle-D-Trp-L-His-D-Ser-L-Lys)] (cyclo(K[azaGly][Nle][dW]H[dS]))		78.8%	80.5%				dramatically prolonged the lag phase and reduced the ThT fluorescence			
c(4-Phe*-L-Nlc-D-Trp-L-His-D-Ser-L-Lys) [Compound 20]				1.6%	48.4%	68.4%		73.0%	84.9%	
c(D-Leu-L-Nle-D-Trp-D-His-IPrTyr*-L-Lys) [Compound 11]				3.5%	54.7%	54.2%		72.4%	74.3%	
c(D-Leu-L-Nle-D-Trp-L-His-Gly^-L-Lys) [Compound 55]								76.9%	106%	
